Data as given in the supplement of paper PMC10307832.

Key:
Test in all cases: relative viability (nuclei count vs DMSO), 5 days (fraction); higher = more cells survive
[1] = compound: COc1cc(Nc2ncc(F)c(Nc3ccc4c(n3)NC(=O)C(C)(C)O4)n2)cc(OC)c1OC [R406] + CCNC(=O)c1noc(-c2cc(C(C)C)c(O)cc2O)c1-c1ccc(CN2CCOCC2)cc1 [Luminespib] (partner 0.01 µM)
How it was run: (§1)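 Relative viability divides the nuclei count in treated wells by that in vehicle wells. Lung cancer cell lines were seeded in 1536-well plates, dosed by pin tool the next day, and fixed and stained after 5 days in one step with final 0.05% Triton X-100, 1% formaldehyde and 1 ug/ml Hoechst. Dosing was a single drug or a fixed anchor-drug dose plus five library-drug doses (not always all listed) in √10 steps, and values are medians of duplicate plates imaged at 4×.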

[2] = compound: COc1cc(Nc2ncc(F)c(Nc3ccc4c(n3)NC(=O)C(C)(C)O4)n2)cc(OC)c1OC [R406] + C[C@@H](Oc1cc(-c2cnn(C3CCNCC3)c2)cnc1N)c1c(Cl)ccc(F)c1Cl [Crizotinib] (partner 1 µM)
How it was run: as §1

[3] = compound: COc1cc(Nc2ncc(F)c(Nc3ccc4c(n3)NC(=O)C(C)(C)O4)n2)cc(OC)c1OC [R406] + Nc1nc2[nH]cc(CCc3ccc(C(=O)N[C@@H](CCC(=O)O)C(=O)O)cc3)c2c(=O)[nH]1 [Pemetrexed] (partner 0.2 µM)
How it was run: as §1

[4] = compound: O=C(/C=C/c1cccnc1)NCCCCC1CCN(C(=O)c2ccccc2)CC1 [Daporinad] + COc1cccc2cc(-c3nc([C@H]4CC[C@H](C(=O)O)CC4)n4ncnc(N)c34)[nH]c12 [OSI-027] (partner 0.5 µM)
How it was run: as §1

Cell Line	relative viability ([1]; first compound 0.08 µM)	relative viability ([1]; first compound 0.253 µM)	relative viability ([1]; first compound 0.8 µM)	relative viability ([1]; first compound 2.53 µM)	relative viability ([1]; first compound 8 µM)	relative viability ([2]; first compound 0.08 µM)	relative viability ([2]; first compound 0.253 µM)	relative viability ([2]; first compound 0.8 µM)	relative viability ([2]; first compound 2.53 µM)	relative viability ([2]; first compound 8 µM)	relative viability ([3]; first compound 0.08 µM)	relative viability ([3]; first compound 0.253 µM)	relative viability ([3]; first compound 0.8 µM)	relative viability ([3]; first compound 2.53 µM)	relative viability ([3]; first compound 8 µM)	relative viability ([4]; first compound 0.0005 µM)	relative viability ([4]; first compound 0.001581 µM)	relative viability ([4]; first compound 0.005 µM)	relative viability ([4]; first compound 0.01581 µM)
NCI-H647	0.235	0.191	0.348	0.128	0.123	0.987	1.35	1.26	0.573	0.0968	0.172	0.178	0.17	0.0932	0.0585	0.583	0.598	0.647	0.735
A-427	0.929	1	1.04	0.398	0.593	1	1.14	0.914	0.629	0.273	0.947	1.01	1.05	0.979	0.787	0.435	0.471	0.503	0.31
EMC-BAC-2	1.14	1.15	1.27	0.745	0.532	0.747	0.855	0.796	0.738	0.262	0.421	0.457	0.427	0.499	0.229	0.393	0.435	0.326	0.202
NCI-H460	0.0325	0.0281	0.0243	0.023	0.0248	0.829	1.09	1.16		0.441	0.064	0.0593	0.0591	0.0591	0.0556	0.754	0.762	0.73	0.697
LCLC-103H	0.843	1.05	1.23	0.701	0.663	1.07	1.24	0.954	0.971	0.828	0.477	0.462	0.486	0.499	0.376	0.499	0.48	0.493	0.471
HCC-827	0.772	0.385	0.563	0.334	0.195	0.975	0.952	0.899	0.841	0.409	0.259	0.262	0.264	0.229	0.193	0.78	0.865	0.881	0.74
NCI-H1355	0.713	0.804	0.664	0.497	0.39	1.09	1.14	1.25	0.909	0.687	1.09	1.09	1.09	0.982	0.911	0.375	0.433	0.471	0.548
NCI-H1734	0.196	0.193	0.207	0.189	0.16	0.707	0.814	0.654	0.542	0.292	0.394	0.417	0.453	0.45	0.322	0.569	0.676	0.674	0.527
HARA	0.51	0.638	1.06	0.483	0.193	0.902	1.06	1.13	1.09	0.376	0.261	0.236	0.246	0.262	0.174	0.488	0.56	0.55	0.355
HCC-15	0.289	0.518	0.295	0.298	0.465	0.837	1.01	0.834		0.635	0.213	0.223	0.2	0.201	0.144	0.669	0.807	0.789	0.779
LCLC-97TM1	0.771	0.883	0.72	0.571	0.291	0.418	0.443	0.38	0.29	0.244	0.182	0.2	0.171	0.183	0.194	0.523	0.633	0.656	0.517
SK-LU-1	0.192	0.203	0.191	0.151	0.101	0.997	1.07	1.15	0.424	0.155	0.952	1.06	1.1	0.528	0.187	0.358	0.335	0.454	0.348
NCI-H1651	1.07	1.2	1.02	0.647	0.793	0.869	0.914	0.853	0.815	0.929	0.475	0.679	0.573	0.548	0.508	0.747	0.767	0.744	0.604
NCI-H1793	0.145	0.148	0.18	0.128	0.136						0.711	1.09	1.15	0.147	0.157	0.25	0.252	0.343	0.254
NCI-H2023	0.807	0.608	0.801	0.41	0.144	0.705	0.855	0.681	0.254	0.145	0.216	0.223	0.199	0.19	0.124	0.35	0.458	0.395	0.455
LC-2-ad	0.982	1.13	0.916	0.456	0.42	0.436	0.456	0.455	0.381	0.357	0.281	0.322	0.238	0.238	0.216	0.832	1.12	1.06	1.01
NCI-H1703						0.623		0.662	0.199	0.129									
NCI-H1437	1.14	1.13	1.15	1.23	0.966	0.944	1.13	0.971	0.864	0.716	0.297	0.316	0.317	0.259	0.203	0.851	0.885	0.885	0.882
SW 1573	0.396	0.44	0.5	0.161	0.107	0.747	1	0.769	0.653	0.579	0.815	0.898	0.903	0.601	0.324	0.564	0.705	0.581	0.455
H3255	1.04		0.827	0.69	0.731	0.82	1.13	0.873	0.761	0.77	0.547	0.588	0.606	0.521	0.49	0.476	0.596	0.587	0.633
Calu-6						0.697	0.954	0.909	0.494	0.36									

Cell Line	relative viability ([1]; first compound 0.08 µM)	relative viability ([1]; first compound 0.253 µM)	relative viability ([1]; first compound 0.8 µM)	relative viability ([1]; first compound 2.53 µM)	relative viability ([1]; first compound 8 µM)	relative viability ([2]; first compound 0.08 µM)	relative viability ([2]; first compound 0.253 µM)	relative viability ([2]; first compound 0.8 µM)	relative viability ([2]; first compound 2.53 µM)	relative viability ([2]; first compound 8 µM)	relative viability ([3]; first compound 0.08 µM)	relative viability ([3]; first compound 0.253 µM)	relative viability ([3]; first compound 0.8 µM)	relative viability ([3]; first compound 2.53 µM)	relative viability ([3]; first compound 8 µM)	relative viability ([4]; first compound 0.0005 µM)	relative viability ([4]; first compound 0.001581 µM)	relative viability ([4]; first compound 0.005 µM)	relative viability ([4]; first compound 0.01581 µM)
NCI-H1792	0.423	0.424	0.402	0.278	0.176	0.842	1.03	1.03	0.925	0.884	0.838	1.07	1.39	0.0474	0.194	0.668	0.655	0.541	0.893
NCI-H2170	0.641	0.622	0.856	0.366	0.574	1.16	1.25	1.15	0.815	0.495	0.194	0.262	0.238	0.24	0.221	0.66	0.734	0.793	0.699
NCI-H1650	0.185	0.196	0.194	0.184	0.182	1.05	1.09	0.961	0.327	0.139	0.355	0.408	0.37	0.291	0.358	0.637	0.655	0.733	0.825
NCI-H2087	0.209	0.123	0.162		0.124	0.825	1.26	0.899	0.983	0.936	0.712	0.733	0.683	0.746	0.679	0.474	0.693	0.694	0.538
HCC-366						0.581	0.794	0.81		0.294	0.161	0.17	0.172	0.164	0.132	0.961	0.907	1.22	1.03
NCI-H838	0.277	0.319	0.176	0.234	0.236	0.806	0.945	0.949	0.612	0.516	0.257	0.268	0.244	0.226	0.136	0.415	0.465	0.475	0.555
LU99A	0.232	0.27	0.244	0.172	0.221	0.474	0.553	0.607		0.218	0.188	0.183	0.224	0.187	0.172	0.33	0.282	0.358	0.305
HCC-78						0.356	0.318	0.398	0.302	0.269	0.807	0.972	0.962	0.847	0.878	0.378		0.383	0.368
EBC-1						0.155	0.231	0.153	0.209	0.166									
NCI-H2342	0.757	0.811	0.819	0.581	0.76						0.737	0.835	0.862	0.749	0.774	0.674	0.552	0.602	0.613
NCI-H1623	0.435	0.483	0.66	0.371	0.424											0.413	0.439	0.466	0.475
NCI-H1299						0.941	0.946	0.977	1.03	0.543									
NCI-H1395	0.502	0.725	0.71	0.466	0.355						0.865	1.01	0.856	0.865	0.434	0.644	0.64	0.71	0.739
NCI-H727	0.351	0.521	0.345		0.323	0.866	0.852	0.898	0.714	0.301						0.603	0.606	0.622	0.519
NCI-H522	1.09	1.31	1.32	0.841	1.04						0.832	1.04	1.09	0.937	0.747	0.612	0.942	0.762	0.667
A549						0.785	0.837	0.941	0.337	0.175									
NCI-H1648											0.749	0.727	0.754	0.675	0.653	0.231	0.26	0.262	0.244
SW 900	0.18	0.186	0.177	0.125	0.117						0.486	0.486	0.532	0.129	0.0856	0.42	0.475	0.745	0.463
IA-LM						0.972	1.21	1.01	1.11	0.657									
ABC-1		0.569	0.27	0.338	0.213	1.24	1.38	1.19	0.841	0.311						0.485	0.472	0.704	0.517
